# Measurements reported in patent publication US4898870A, “Pyrroloquinoline quinone compounds useful as an enzyme inhibitor” (Sogo Pharmaceutical Company Limited, priority 1986, dated 1990).
# Several values for one entry are separate records, joined by “and”; a condition that tells them apart may be missing. Equal entries are not always repeated. Structures can show the parent of a compound that is named as a salt.
# Columns and labels:
# Assay type in all cases: biochemical
# [1] = molecular target: T1, human placental aldose reductase (Homo sapiens, UniProt P15121); assay: Inhibition of human placental aldose reductase; settings: for IC50: human placenta enzyme; for IC100: human placenta, read-out: concentration inhibiting the activity by 100%
# T1 construct: An enzyme solution was prepared from human placenta; from tissue; host or cells: human placenta
# Protocol: (§1) Specifically reaction was started by adding dl-glyceraldehyde as a substrate to a reaction solution containing rat lens homogenate, Li2 SO4, NADPH2 and inhibitor, and the enzyme activity was measured by the decrease of the optical absorption of NADPH2 (optical density: OD) at 340 nm for 5 min. The solution with no addition of the substrate was used for the blank OD. The inhibiting ratio for the aldose reductase reaction by the inhibitor was determined by the following equation: [formula]
# The determination of enzyme activity was same as in Test Example 1 except enzyme source was human placenta.
# (§2) To a reaction solution containing the chick lens homogenate, Li2 SO4, NADPH2 and an inhibitor, was added dlglyceraldehyde as substrate to start the reaction, and the enzymatic activity was determined by measuring the decrease in optical density (OD) of NADPH2 at 340 nm after five minutes. A solution with no substrate added was used for the blank test. The inhibition rate against the aldose reductase reaction was calculated from the following equation: [formula]
# An enzyme solution was prepared from human placenta, and the inhibitory action of PQQ·2K against human placental aldose reductase was measured in the same way as in Test Example 4.
# An enzyme solution was prepared from human placenta, and the inhibitory action of PQQ·3Me against human placental aldose reductase was measured in the same way as in Test Example 4.
# An enzyme solution was prepared from human placenta, and the inhibitory action of PQQ·2Me.Et against human placental aldose reductase was measured in the same way as in Test Example 4.
# [2] = test system: chick lens aldose reductase; assay: Inhibition of chick lens aldose reductase
# Protocol: The activity of aldose reductase was measured according to the method of Kinoshita et al. [Metabolism, 28, 462-469 (1979)] using a homogenate of chick lens.
# as §2
# An enzyme solution was prepared from chick lens in the same manner as in Test Example 4, and the inhibitory action of PQQ·H2 against aldose reductase was measured in the same way as in Test Example 4.
# An enzyme solution was prepared from chick lens in the same manner as in Test Example 4, and the inhibitory action of PQQ·3Me against aldose reductase was measured in the same way as in Test Example 4.
# [3] = molecular target: T2, bovine lens aldose reductase (Bos taurus, UniProt P16116); assay: Inhibition of bovine lens aldose reductase
# T2 construct: A homogenate of bovine lens was centrifuged for ten minutes at 20,000 rpm under cooling; from tissue; host or cells: bovine lens (20,000 rpm supernatant of homogenate)
# Protocol: as §1
# The determination of enzyme activity was same as in Test Example 1 except enzyme source was bovine lens.
# as §2
# A homogenate of bovine lens was centrifuged for ten minutes at 20,000 rpm under cooling, the supernatant was collected as an enzyme solution, and the inhibitory action of PQQ against aldose reductase was measured in the same way as in Test Example 4.
# A homogenate of bovine lens was centrifuged for ten minutes at 20,000 rpm under cooling, the supernatant was collected as an enzyme solution, and the inhibitory action of PQQ·H2 against bovine lens aldose reductase was measured in the same way as in Test Example 4.
# An enzyme solution was prepared from chick lens in the same manner as in Test Example 9, and the inhibitory action of PQQ·3Me against bovine lens aldose reductase was measured in the same way as in Test Example 4.
# [4] = molecular target: T3, rat lens aldose reductase (Rattus norvegicus, UniProt P07943); assay: Inhibition of rat lens aldose reductase (NADPH2 OD decrease at 340 nm); settings: for IC50: rat lens homogenate, substrate dl-glyceraldehyde
# T3 construct: A homogenate of rat lens was used; from tissue; host or cells: rat lens (crude homogenate; in later tests the 3,000 rpm supernatant)
# Protocol: A homogenate of rat lens was used and the activity of aldose reductase was measured by the method of Kinoshita, et. al. (Kinoshita J. H., et al, Metabolism, 28, 462-469, (1979)).
# as §1, §2
# A homogenate of rat lens was centrifuged for four minutes at 3,000 rpm under cooling, the supernatant was collected as an enzyme solution, and the inhibitory action of PQQ·H2 against aldose reductase was measured in the same way as in Test Example 4.
# An enzyme solution was prepared from rat lens in the same manner as in Test Example 10, and the inhibitory action of PQQ·3Me against rat lens aldose reductase was measured in the same way as in Test Example 4.
# [5] = inhibitor 10^-7 M/reaction soln., read-out: Inhibition Rate
# [6] = inhibitor 2 × 10^-6 M/reaction soln., read-out: Inhibition Rate
# [7] = inhibitor 4 × 10^-6 M/reaction soln., read-out: Inhibition Rate
# [8] = inhibitor 6 × 10^-6 M/reaction soln., read-out: Inhibition Rate
# [9] = inhibitor 8 × 10^-6 M/reaction soln., read-out: Inhibition Rate
# [10] = inhibitor 10^-5 M/reaction soln., read-out: Inhibition Rate
# [11] = inhibitor 10^-6 M/reaction soln., read-out: Inhibition Rate
structure (smiles),measurement,setting,value
"COC(=O)c1cc(C(=O)OC)c2c(n1)C(=O)C(=O)c1cc(C(=O)OC)[nH]c1-2 [PQQ.3Me, PQQ trimethyl ester]",IC50,[1],390 nM
same,IC100,[1],2.5 µM
same,inhibition at 0.2 µM,"[1]; inhibitor 2 × 10^-7 M/reaction soln., read-out: Inhibition Rate",15%
same,inhibition at 2.5 µM,"[1]; inhibitor 2.5 × 10^-6 M/reaction soln., read-out: Inhibition Rate",100%
same,inhibition at 0.3 µM,"[1]; inhibitor 3 × 10^-7 M/reaction soln., read-out: Inhibition Rate",34.4%
same,inhibition at 0.4 µM,"[1]; inhibitor 4 × 10^-7 M/reaction soln., read-out: Inhibition Rate",50.6%
same,inhibition at 5 µM,"[1]; inhibitor 5 × 10^-6 M/reaction soln., read-out: Inhibition Rate",100%
same,inhibition at 0.5 µM,"[1]; inhibitor 5 × 10^-7 M/reaction soln., read-out: Inhibition Rate",63.9%
same,inhibition at 0.08 µM,"[1]; inhibitor 8 × 10^-8 M/reaction soln., read-out: Inhibition Rate",1.7%
same,inhibition at 0.1 µM,[1]; [5],10%
same,concentration inhibiting the activity by 100%,[2]; chick lens,8 µM
same,IC50,"[2]; chick lens homogenate, read-out: concentration inhibiting the aldose reductase activity by 50%",3000 nM
same,Inhibition Rate,[2]; inhibitor 2 × 10^-6 M/reaction soln.,30.0%
same,Inhibition Rate,[2]; inhibitor 4 × 10^-6 M/reaction soln.,77.1%
same,Inhibition Rate,[2]; inhibitor 6 × 10^-6 M/reaction soln.,87.1%
same,Inhibition Rate,[2]; inhibitor 8 × 10^-6 M/reaction soln.,100%
same,Inhibition Rate,[2]; inhibitor 10^-5 M/reaction soln.,100%
same,Inhibition Rate,[2]; inhibitor 10^-6 M/reaction soln.,0%
same,concentrations at which effective,[3]; bovine lens (Table 13),≥ 10^-6 M
same,IC50,[3]; bovine lens enzyme,4200 nM
same,IC100,"[3]; bovine lens, read-out: concentration inhibiting the activity by 100%",6 µM
same,inhibition at 2 µM,[3]; [6],22.6%
same,inhibition at 4 µM,[3]; [7],45.8%
same,inhibition at 6 µM,[3]; [8],100%
same,inhibition at 8 µM,[3]; [9],100%
same,inhibition at 10 µM,[3]; [10],100%
same,inhibition at 1 µM,[3]; [11],10%
same,inhibition at 0.1 µM,[3]; [5],0%
same,inhibition at 2 µM,[4]; [6],3.3%
same,inhibition at 4 µM,[4]; [7],23.5%
same,inhibition at 6 µM,[4]; [8],54.4%
same,inhibition at 8 µM,[4]; [9],98.9%
same,inhibition at 100 µM,"[4]; inhibitor 10^-4 M/reaction soln., read-out: Inhibition Rate",100%
same,inhibition at 10 µM,[4]; [10],100%
same,inhibition at 1 µM,[4]; [11],0%
same,IC50,[4],5800 nM
same,IC100,"[4]; rat lens, read-out: concentration inhibiting the activity by 100%",10 µM
"O=C(O)c1cc(C(=O)O)c2c(n1)C(=O)C(=O)c1cc(C(=O)O)[nH]c1-2 [PQQ.2K, PQQ dipotassium salt]",IC50,[1],1920 nM and 1900 nM
same,IC100,[1],4 µM
same,inhibition at 2 µM,[1]; [6],51.4%
same,inhibition at 3 µM,"[1]; inhibitor 3 × 10^-6 M/reaction soln., read-out: Inhibition Rate",83.3%
same,inhibition at 4 µM,[1]; [7],100%
same,inhibition at 0.9 µM,"[1]; inhibitor 9 × 10^-7 M/reaction soln., read-out: Inhibition Rate",8.3%
same,inhibition at 1 µM,[1]; [11],26.9%
same,IC50,[4],2000 nM
